Where a name gives a salt, the structure may show the parent alone. Read-outs that look alike come from different tables or passages of the source.
Assays:
anesthetized dog = experiment: Anesthetized dog: cardiovascular activity; assay type: in vivo, Beagle dog; settings: for Hypotensive action / Increase of the cardiac output / Increase of the stroke volume / Reduction of the systemic arterial resistances: i.v. bolus
Method: The interesting hemodynamic properties of CHF 1255 were confirmed in vivo in the anesthetized dog.
Anesthesized dog: cardiovascular activity
Beagle dogs were anesthetized with sodium pentobarbital (30 mg/kg iv) thoracotomized and monitored by recording cardiocirculatory parameters.
CHF 1255 and the reference drugs (amrinone and xamoterol) were administered i.v. in a bolus.
CHF 1255 at the doses of 0.3-1.3 μmoles/kg i.v. confirmed its activity in changing hemodynamic parameters.

[1] = test system: histaminergic H2 receptors; experiment: Mechanism of cardiostimulant action: histaminergic H2 receptors; settings: mechanism study
Excerpt: (§1) The mechanism of the inotropic activity of CHF 1255 has been studied in a series of other tests.
(§2) Studies have excluded the possibility that the cardiostimulant action of the compound is due to catecholamines release, to the stimulation of alpha-adrenergic cardiac receptors, or to the stimulation of histaminergic H1 and H2 receptors.

phosphodiesterase = experiment: Mechanism of cardiostimulant action: phosphodiesterase inhibition; settings: mechanism study
Excerpt: as §1, §2

[2] = test system: histaminergic H1 receptors; experiment: Mechanism of cardiostimulant action: histaminergic H1 receptors; settings: mechanism study
Excerpt: as §1, §2

[3] = molecular target: T1, beta-2 adrenergic receptors (Cavia porcellus, UniProt Q8K4Z4); experiment: Isolated guinea-pig trachea: interactions with beta-2 adrenergic receptors (relaxation of carbachol contraction); settings: for EC50: carbachol 3×10^-7 M
T1 construct: Trachea strips were isolated and prepared according to the method described by Emerson J and Machay D; from tissue; host or cells: guinea-pig isolated trachea strips
Method: The selectivity of this interaction has been studied by evaluating the effects on beta-2 adrenergic receptors, in the guinea-pig isolated trachea, using CHF 1026 as reference compound.
Isolated guinea-pig trachea: interactions with beta-2 adrenergic receptors
Trachea strips were isolated and prepared according to the method described by Emerson J and Machay D in J Pharm Pharmacol 1979, 31, 798, immersed in Krebs-Henseleit solution (37° C., 95% O2 +5% CO2), subjected to an initial tension of 1 g and contracted with carbachol (3×10^-7 M).
Dose-response curves of CHF 1255 and CHF 1026 were recorded in the absence and in the presence of 10^-6 M propranolol, used as antagonist and added to the bath before the stimulation with carbachol.
The obtained results are shown in Table 2, expressed as potency (EC50 calculated from t he dose--response curve) and intrinsic activity (α, isoproternol=1).

isolated rat left atrium = experiment: Isolated rat left atrium: inotropic activity (force); settings: for EC50 / Emax: Rattus norvegicus; for EC50: read-out: EC50, left atrium (force)
Method: (§3) The inotropic and chronotropic effects of compound (Ia) of the invention were determined in vitro using, respectively, isolated rat left atrium and right atrium.
Left atrium:inotrocic activity
The atria were subjected to a 0.5 g starting tension and suspended in a bath containing aerated Krebs-Henseleit j solution with 95% O2 and […] kept at 32.C. The preparation was stimulated at a 4 Hz frequency with pulses during 5 msec each. The contraction strength was detected by an isometric transducer and recorded on a microndynamometer.
(§4) The results were expressed as the percentage of the response obtained with a maximal dose ([…]) of isoproterenol which was determined at the beginning of the test. In Table 1 the potency (EC50=effective concentration inducing the 50% of the maximal effect) and the relative intrinsic activity (expressed as α and compared with that of isoproterenol, taken=1) are shown.
(§5) The effects of the compounds were evaluated in rat isolated atria according to the previously described method.
(§6) Table 3. Potency (EC50) and intrinsic activity (α;isoproterenol=1) on the isolated rat left atrium (Inotropic activity) and right atrium (chronotropic activity).

catecholamines release = experiment: Mechanism of cardiostimulant action: catecholamines release; settings: mechanism study
Excerpt: as §1, §2

[4] = test system: isolated rat right atrium; experiment: Isolated rat right atrium: chronotropic activity (frequency); settings: for EC50 / Emax: Rattus norvegicus; for EC50: read-out: EC50, right atrium (frequency)
Method: as §3
Right atrium:chronotrpic activity
The preparation was prepared in the same way and under the same conditions as described above, but was not subjected to electric stimulation. Frequency was monitored by a cardiotachograph.
as §4, §5, §6

rabbit isolated aorta = experiment: Rabbit isolated aorta, inhibition of norepinephrine dose-response curve
[5] = test system: arterial rat hind quarter; experiment: Rat perfused hind quarter; vasodilating action; settings: for Emax: Rattus norvegicus, 100% = complete reduction
Method: Rat perfused hind quarter; vasodilating action
The vasodilating effect of CHF 1255 has been evaluated in the arterial rat hind quarter perfused with Krebs-Henseleit solution at constant flow.
The increase of arterial resistance was induced by K^+ -enriched solution (40 mM), norepinephrine (5×10^-6 M) and serotonin (5×10^-7 M).
Papaverine and prazosin, powerful α-blocker vasodilator, were used as reference compounds.
ED40 =dose (moles) decreasing of 40% the contraction induced by the agonist. 100% was considered as the complete recduction of contraction.

[6] = Evaluation of acute toxicities, rat; settings: in vivo, male/female, read-out: Acute toxicity mean LD50
Excerpt: (§7) Evaluation of acute toxicities

[7] = test system: beta-1 adrenergic receptors; experiment: Isolated rat left atrium: interactions with beta-adrenergic receptors (atenolol antagonism)
Method: Isolated rat left atrium: interactions with beta-adrenercic receptors.
The affinity for beta-1 adrenergic receptors has been evaluated in the rat left atrium as previously described.
In this test, dose-response curves of CHF 1255 were recorded in the absence and in the presence of increasing concentrations (10^-8 to 3×10^-7 M) of the selective beta-1 blocker atenolol.

[8] = test system: beta-2 adrenergic receptors; experiment: Isolated guinea-pig trachea: interactions with beta-2 adrenergic receptors (relaxation of carbachol contraction); settings: inferred from selective beta-1 agonism
[9] = Evaluation of acute toxicities, mouse; settings: in vivo, male, read-out: Acute toxicity mean LD50
Excerpt: as §7

[10] = 1st of three doses (0.3-1.3 μmoles/kg)
[11] = 2nd of three doses (0.3-1.3 μmoles/kg)
[12] = 3rd of three doses (0.3-1.3 μmoles/kg)

T1 sequence (Q8K4Z4 whole entry): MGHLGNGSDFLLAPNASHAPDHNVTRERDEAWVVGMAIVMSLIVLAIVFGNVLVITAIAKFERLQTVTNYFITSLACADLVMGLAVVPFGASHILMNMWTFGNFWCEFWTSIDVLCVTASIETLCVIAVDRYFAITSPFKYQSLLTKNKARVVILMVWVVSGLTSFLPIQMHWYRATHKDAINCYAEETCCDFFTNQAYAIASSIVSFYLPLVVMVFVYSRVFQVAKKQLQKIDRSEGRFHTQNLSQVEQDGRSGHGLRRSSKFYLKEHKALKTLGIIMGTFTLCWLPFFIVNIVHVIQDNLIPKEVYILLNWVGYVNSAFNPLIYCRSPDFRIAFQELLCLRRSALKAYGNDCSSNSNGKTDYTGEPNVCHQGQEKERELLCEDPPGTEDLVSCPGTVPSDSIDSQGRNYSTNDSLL

COc1ccc2c(c1OC)CCC(N[C@@H](C)[C@H](O)c1ccc(O)cc1)C2 (relative stereo) [CHF 1255, Erythro-5,6-Dimethoxy-2-[2-(4-hydroxyphenyl)-2-hydroxy-1-mehylethylamino]1,2,3,4-tetrahydronaphthalene hydrochloride]
Hemodynamic effects (in words) (anesthetized dog; anesthetized dog, i.v.): more relevant than those of amrinone
Duration of activity (anesthetized dog; dog, in vivo): long-lasting
Hypotensive action (anesthetized dog; [10]): -17%
Increase of the cardiac output (anesthetized dog; [10]): 17%
Increase of the stroke volume (anesthetized dog; [10]): 10
Reduction of the systemic arterial resistances (anesthetized dog; [10]): -28%
Hypotensive action (anesthetized dog; [11]): -22%
Increase of the cardiac output (anesthetized dog; [11]): 28%
Increase of the stroke volume (anesthetized dog; [11]): 16
Reduction of the systemic arterial resistances (anesthetized dog; [11]): -37%
Hypotensive action (anesthetized dog; [12]): -31%
Increase of the cardiac output (anesthetized dog; [12]): 34%
Increase of the stroke volume (anesthetized dog; [12]): 21
Reduction of the systemic arterial resistances (anesthetized dog; [12]): -45%
Inotropic effect, dF/dT index (in words) (anesthetized dog; peak of first derivative of aortic flow): remarkable inotropic effect increasing the dF/dT index
Contribution of histaminergic H2 receptor stimulation to cardiostimulant action [1]: excluded
Contribution of phosphodiesterase inhibition to cardiostimulant activity (phosphodiesterase): not due to phosphodiesterase inhibition
Contribution of histaminergic H1 receptor stimulation to cardiostimulant action [2]: excluded
Effect of propranolol on dose-response curve ([3]; 10^-6 M propranolol): remain unchanged
Emax ([3]; guinea pig, isoproterenol=1, without propranolol, read-out: α in absence of propranolol): 94%
Stimulation of beta-2 adrenergic receptors (in words) ([3]; guinea-pig trachea): does not stimulate beta-2 adrenergic receptors
EC50 ([3]; guinea-pig trachea, with 10^-6 M propranolol, read-out: EC50 in presence of propranolol): 4.6 µM
EC50 ([3]; guinea-pig trachea, without propranolol, read-out: EC50 in absence of propranolol): 3.4 µM
α in presence of propranolol ([3]; isoproterenol=1, with 10^-6 M propranolol): 0.72
EC50 (isolated rat left atrium; Table 3, inotropic activity, rat left atrium): 3.01 µM
EC50 (isolated rat left atrium; Table I, isolated rat left atrium, 4 Hz stimulation, confidence limits in parentheses): 3 µM
Emax (isolated rat left atrium; Table 3, isoproterenol=1, read-out: α, left atrium (force)): 60%
Emax (isolated rat left atrium; Table I, isoproterenol taken=1, confidence limits in parentheses, read-out: α (intrinsic activity), left atrium (force)): 60%
Cardiostimulating potency compared with dopamine and CHF 1026 (isolated rat left atrium; Table 1 comparison): potency comparable to those of dopamine and of CHF 1026
Intrinsic activity / type of agonism (in words) (isolated rat left atrium; beta-1 adrenergic receptors): partial agonist of beta-1 adrenergic receptors
Potency ratio vs amrinone (times higher) (isolated rat left atrium; increase of contraction force, 50% of maximum effect, higher than amrinone): about 10 times
Potency ratio vs xamoterol (times lower) (isolated rat left atrium; increase of contraction force, 50% of maximum effect, lower than xamoterol): about 300 times
Contribution of catecholamines release to cardiostimulant action (catecholamines release): excluded
EC50 ([4]; Table 3, chronotropic activity, rat right atrium): 1.32 µM
EC50 ([4]; Table I, isolated rat right atrium, confidence limits in parentheses): 1.3 µM
Emax ([4]; Table 3, isoproterenol=1, read-out: α, right atrium (frequency)): 160%
Emax ([4]; Table I, isoproterenol taken=1, confidence limits in parentheses, read-out: α (intrinsic activity), right atrium (frequency)): 55%
Chronotropic efficacy compared with xamoterol ([4]; Table 3 comparison): remarkably lower than that of xamoterol
α-blocking activity in rabbit isolated aorta (rabbit isolated aorta): competitive inhibition of the noprepinephrine dose--response curve
Activity against contraction by the different agents (in words) ([5]; K+, norepinephrine, serotonin): particularly active on the norepinephrine induced contraction
Emax ([5]; K+ 40 mM, read-out: α (efficacy), K+ induced contraction): 46%
Emax ([5]; norepinephrine 5×10^-6 M, read-out: α (efficacy), norepinephrine induced contraction): 94%
Emax ([5]; serotonin 5×10^-7 M, read-out: α (efficacy), 5-HT induced contraction): 60%
ED40, K+ induced contraction ([5]; dose decreasing contraction by 40%, K+ 40 mM): 1.5e-06 mol
ED40, norepinephrine induced contraction ([5]; dose decreasing contraction by 40%, norepinephrine 5×10^-6 M): 1.2e-08 mol
ED40, 5-HT induced contraction ([5]; dose decreasing contraction by 40%, serotonin 5×10^-7 M): 6.5e-07 mol
LD50 ([6]; iv, i.v.): 59 mg/kg
LD50 ([6]; po, os): 1270 mg/kg
Shift of dose-response curve by beta-1 blocker atenolol ([7]; atenolol 10^-8 to 3×10^-7 M): shifted the dose-responsive curve of CHF 1255 to the right in a dose-dependent way
Receptor mediating the inotropic activity ([7]; mechanism study): due to the stimulation of beta-1 adrenergic receptors
Tachycardic and arrhythmogenic activity due to stimulation of beta-2 receptors [8]: no tachycardic and arrhythmogenic activity
LD50 ([9]; iv, i.v.): 65 mg/kg
LD50 ([9]; po, os): 325 mg/kg
